In patent US9492433B2, “Pharmaceutical composition for the treatment of Duchenne muscular dystrophy” (Summit Corporation Plc, priority 2012, dated 2016):
Values after ≈ are worked out from the molar mass of the structure shown. Like-named read-outs stand apart in the source and are kept apart here.

What was measured:
Assay type in all cases: physicochemical
[1] = Solubility in water and corn oil
[2] = Water/octanol partition coefficient (ProfilerLDA isocratic chromatography); conditions: octanol/water (octanol-coated column), pH 7.4; read-out: log D (water/octanol partition coefficient)
Procedure: The water/octanol partition coefficient was determined with a ProfilerLDA isocratic chromatography system, using an octanol-coated column with octanol-saturated mobile phases.

[3] = Solubility of C1100 Form I in pharmaceutically-acceptable solvents at 20° C. (HPLC of saturated solutions); conditions: organic solvent or mixture, thermodynamic from solid, Form I polymorph, 4 hours equilibration
Procedure: In each case, about 25 mg of drug substance was allowed to equilibrate with 250 μL of solvent over 4 hours. The resulting saturated solutions were filtered and analysed by HPLC.

[4] = Gravimetric vapour sorption analysis; conditions: Form I
Source text: Form I was subjected to gravimetric vapour sorption analysis, ramping profile from 0 to 90% RH at 10% RH increments.

CCS(=O)(=O)c1ccc2oc(-c3ccc4ccccc4c3)nc2c1 [C1100, 5-(ethylsulfonyl)-2-(naphthalen-2-yl)benzo[d]oxazole]
solubility ([1]; oil or lipid, corn oil, very slightly soluble, read-out: Solubility in corn oil): 600 µg/mL (≈ 1.78 mM)
solubility ([1]; water, practically insoluble, read-out: Solubility in water): < 1 µg/mL
chromatographic logD [2]: 3.99 ± 0.01
solubility at 4 h ([3]; solvent 1,4-dioxane): 28400 µg/mL (≈ 84.2 mM)
solubility at 4 h ([3]; solvent 1-butanol): 350 µg/mL (≈ 1.04 mM)
solubility at 4 h ([3]; solvent 1-propanol): 790 µg/mL (≈ 2.34 mM)
solubility at 4 h ([3]; solvent 2-butanol): 850 µg/mL (≈ 2.52 mM)
solubility at 4 h ([3]; solvent 2-propanol): 470 µg/mL (≈ 1.39 mM)
solubility at 4 h ([3]; solvent Acetone): 27500 µg/mL (≈ 81.6 mM)
solubility at 4 h ([3]; solvent Acetonitrile): 5440 µg/mL (≈ 16.1 mM)
solubility at 4 h ([3]; solvent Butan-2-one): 3120 µg/mL (≈ 9.25 mM)
solubility at 4 h ([3]; solvent Chloroform): > 50000 µg/mL
solubility at 4 h ([3]; solvent Dimethylformamide): > 33800 µg/mL
solubility at 4 h ([3]; solvent Dimethylsulfoxide): 13200 µg/mL (≈ 39.1 mM)
solubility at 4 h ([3]; solvent Ethanol): 1140 µg/mL (≈ 3.38 mM)
solubility at 4 h ([3]; solvent Ethyl acetate): 8360 µg/mL (≈ 24.8 mM)
solubility at 4 h ([3]; solvent Heptane): 10900 µg/mL (≈ 32.4 mM)
solubility at 4 h ([3]; solvent Methanol): 1060 µg/mL (≈ 3.14 mM)
solubility at 4 h ([3]; solvent Tetrahydrofuran): 25900 µg/mL (≈ 76.8 mM)
solubility at 4 h ([3]; solvent Toluene): 8500 µg/mL (≈ 25.2 mM)
solubility at 4 h ([3]; solvent tert-butyl methyl ether (TBME)): 11700 µg/mL (≈ 34.6 mM)
Moisture absorbed ([4]; 0 to 90% RH at 10% RH increments, up to 90% RH, reversed under dry-air conditions): no more than 0.25 % by weight
Hygroscopicity ([4]; based on vapour sorption results): not hygroscopic
